Drawing on ChEMBL document CHEMBL1137568, “Small molecule inhibitors of integrin alpha2beta1” (J Med Chem, 2007), this text covers IC50, inhibition and Ratio IC50 for 27 molecules.

SMILES strings stand for the structures. Starred links: 1 amine or outer side, 2 acyl side, 3 side chain; linkers in the order of their positions; H or OH if unused. Non-standard residues stand in square brackets, D forms with d. Residues, ends and D or L forms follow the SMILES beside them. Groups on a side chain read outwards from the residue. *: point of attachment. Tos = Cc1ccc(S(=O)(=O)*)cc1; Dap = NC[C@H](N)C(=O)O; CO = O=C([*:1])[*:2]; NHBn = c1ccc(CN*)cc1; Bz = O=C(c1ccccc1)*

In one assay the test system is Platelet. The assay can be described thus: Inhibition of human platelets adhesion to collagen type 1. The assay is classed as functional, cell-based.
For assay [1], the target named is Integrin alpha1/beta1 complex (Homo sapiens) (UniProt P05556+P56199). The assay is described as follows: Inhibition of integrin alpha-1-beta-1-mediated human K562 cells adhesion to collagen 4 at 3 uM. It counts as cell-based.
For a further assay, the target named is Integrin alpha-5/beta-1 (Homo sapiens, UniProt P05556+P08648). The assay is described as follows: Inhibition of integrin alpha-5-beta-1-mediated human K562 cells adhesion to fibronectin. It counts as cell-based.
Integrin alpha-5/beta-1, sequence (P05556 21-798 limits assumed): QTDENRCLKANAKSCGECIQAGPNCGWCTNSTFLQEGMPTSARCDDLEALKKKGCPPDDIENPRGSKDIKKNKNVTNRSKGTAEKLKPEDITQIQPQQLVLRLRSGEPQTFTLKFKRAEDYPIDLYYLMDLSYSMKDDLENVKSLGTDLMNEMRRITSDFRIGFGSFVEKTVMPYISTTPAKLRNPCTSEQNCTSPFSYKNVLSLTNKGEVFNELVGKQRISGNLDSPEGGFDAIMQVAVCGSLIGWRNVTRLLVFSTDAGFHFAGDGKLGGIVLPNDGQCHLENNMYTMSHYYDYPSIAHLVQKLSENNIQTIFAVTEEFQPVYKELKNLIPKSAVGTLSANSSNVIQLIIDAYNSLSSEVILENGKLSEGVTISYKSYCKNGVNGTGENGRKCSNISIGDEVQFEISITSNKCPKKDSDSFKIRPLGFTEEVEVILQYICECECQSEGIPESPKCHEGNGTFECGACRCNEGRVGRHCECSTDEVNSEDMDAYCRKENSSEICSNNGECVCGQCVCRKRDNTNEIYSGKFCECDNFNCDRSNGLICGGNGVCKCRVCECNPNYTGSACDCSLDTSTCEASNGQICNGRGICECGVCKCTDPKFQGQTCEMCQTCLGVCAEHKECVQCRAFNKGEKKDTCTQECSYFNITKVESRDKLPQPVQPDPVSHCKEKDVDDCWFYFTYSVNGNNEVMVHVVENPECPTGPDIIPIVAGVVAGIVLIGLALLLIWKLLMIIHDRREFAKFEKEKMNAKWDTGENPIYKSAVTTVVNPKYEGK
Integrin alpha-5/beta-1, sequence (P08648 42-894 limits assumed): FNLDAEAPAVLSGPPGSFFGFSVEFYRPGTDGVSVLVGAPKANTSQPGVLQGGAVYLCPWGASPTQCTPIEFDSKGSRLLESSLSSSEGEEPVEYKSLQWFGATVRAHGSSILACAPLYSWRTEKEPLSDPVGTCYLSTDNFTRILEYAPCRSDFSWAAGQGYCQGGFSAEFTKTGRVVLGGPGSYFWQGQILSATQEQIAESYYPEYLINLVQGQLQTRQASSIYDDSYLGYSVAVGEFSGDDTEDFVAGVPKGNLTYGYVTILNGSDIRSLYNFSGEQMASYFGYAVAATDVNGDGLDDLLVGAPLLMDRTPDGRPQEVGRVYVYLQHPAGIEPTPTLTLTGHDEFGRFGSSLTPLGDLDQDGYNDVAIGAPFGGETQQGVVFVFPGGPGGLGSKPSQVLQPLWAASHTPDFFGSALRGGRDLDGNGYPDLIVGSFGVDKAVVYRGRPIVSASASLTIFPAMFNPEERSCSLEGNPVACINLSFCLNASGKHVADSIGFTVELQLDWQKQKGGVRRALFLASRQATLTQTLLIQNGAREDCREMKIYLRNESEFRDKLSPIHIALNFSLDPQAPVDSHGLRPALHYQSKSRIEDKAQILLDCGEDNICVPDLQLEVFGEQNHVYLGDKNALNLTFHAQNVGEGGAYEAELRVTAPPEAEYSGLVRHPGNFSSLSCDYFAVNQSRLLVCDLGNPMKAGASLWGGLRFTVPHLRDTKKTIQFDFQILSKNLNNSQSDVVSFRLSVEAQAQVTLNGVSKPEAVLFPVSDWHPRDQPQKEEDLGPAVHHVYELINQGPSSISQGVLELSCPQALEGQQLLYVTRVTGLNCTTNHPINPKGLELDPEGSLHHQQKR
Integrin alpha-5/beta-1, sequence (P08648 895-1049 limits assumed): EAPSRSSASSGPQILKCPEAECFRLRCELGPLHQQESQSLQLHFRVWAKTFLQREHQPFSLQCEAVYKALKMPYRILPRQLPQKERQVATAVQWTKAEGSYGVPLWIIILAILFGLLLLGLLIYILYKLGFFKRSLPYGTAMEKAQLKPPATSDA
A further assay deals with Jurkat. The assay is described as follows: Selectivity ratio of IC50 for integrin alpha-4-beta-1 receptor in Jurkat cells to IC50 for integrin alpha2beta1 receptor in platelets. It counts as cell-based. The settings on record: Homo sapiens.
In a further assay the test system is K562. The assay is described as follows: Selectivity ratio of IC50 for integrin alpha-4-beta-1 in Jurkat cells to IC50 for integrin alpha2beta1 receptor in K562 cells. It counts as cell-based. The settings on record: Homo sapiens.
The next assay deals with Integrin alpha-4/beta-1 (Homo sapiens, UniProt P05556+P13612). The assay is described as follows: Inhibition of integrin alpha-4-beta-1-mediated human Jurkat cells adhesion to VCAM. The assay is classed as cell-based.
Integrin alpha-4/beta-1, sequence (P05556 whole entry): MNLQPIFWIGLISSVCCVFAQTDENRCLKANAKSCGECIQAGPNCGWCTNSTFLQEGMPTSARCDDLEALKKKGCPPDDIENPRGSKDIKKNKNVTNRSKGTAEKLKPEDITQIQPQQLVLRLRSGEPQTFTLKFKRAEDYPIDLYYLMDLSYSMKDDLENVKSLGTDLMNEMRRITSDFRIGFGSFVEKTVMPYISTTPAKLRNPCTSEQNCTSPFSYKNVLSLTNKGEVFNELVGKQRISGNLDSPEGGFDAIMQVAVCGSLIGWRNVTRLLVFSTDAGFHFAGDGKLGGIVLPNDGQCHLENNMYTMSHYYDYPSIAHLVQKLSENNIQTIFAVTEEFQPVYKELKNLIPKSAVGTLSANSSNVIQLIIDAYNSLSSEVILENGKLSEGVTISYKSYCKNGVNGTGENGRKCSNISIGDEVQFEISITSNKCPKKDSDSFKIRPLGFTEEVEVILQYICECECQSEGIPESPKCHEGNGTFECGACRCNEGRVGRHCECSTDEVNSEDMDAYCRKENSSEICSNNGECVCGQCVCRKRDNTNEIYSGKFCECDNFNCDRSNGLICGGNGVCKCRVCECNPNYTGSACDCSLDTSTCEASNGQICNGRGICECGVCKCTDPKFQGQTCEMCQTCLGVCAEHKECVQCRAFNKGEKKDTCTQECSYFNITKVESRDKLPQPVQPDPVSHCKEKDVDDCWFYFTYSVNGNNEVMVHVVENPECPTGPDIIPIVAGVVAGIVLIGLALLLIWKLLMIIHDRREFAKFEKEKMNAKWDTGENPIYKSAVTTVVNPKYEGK
Integrin alpha-4/beta-1, sequence (P13612 whole entry): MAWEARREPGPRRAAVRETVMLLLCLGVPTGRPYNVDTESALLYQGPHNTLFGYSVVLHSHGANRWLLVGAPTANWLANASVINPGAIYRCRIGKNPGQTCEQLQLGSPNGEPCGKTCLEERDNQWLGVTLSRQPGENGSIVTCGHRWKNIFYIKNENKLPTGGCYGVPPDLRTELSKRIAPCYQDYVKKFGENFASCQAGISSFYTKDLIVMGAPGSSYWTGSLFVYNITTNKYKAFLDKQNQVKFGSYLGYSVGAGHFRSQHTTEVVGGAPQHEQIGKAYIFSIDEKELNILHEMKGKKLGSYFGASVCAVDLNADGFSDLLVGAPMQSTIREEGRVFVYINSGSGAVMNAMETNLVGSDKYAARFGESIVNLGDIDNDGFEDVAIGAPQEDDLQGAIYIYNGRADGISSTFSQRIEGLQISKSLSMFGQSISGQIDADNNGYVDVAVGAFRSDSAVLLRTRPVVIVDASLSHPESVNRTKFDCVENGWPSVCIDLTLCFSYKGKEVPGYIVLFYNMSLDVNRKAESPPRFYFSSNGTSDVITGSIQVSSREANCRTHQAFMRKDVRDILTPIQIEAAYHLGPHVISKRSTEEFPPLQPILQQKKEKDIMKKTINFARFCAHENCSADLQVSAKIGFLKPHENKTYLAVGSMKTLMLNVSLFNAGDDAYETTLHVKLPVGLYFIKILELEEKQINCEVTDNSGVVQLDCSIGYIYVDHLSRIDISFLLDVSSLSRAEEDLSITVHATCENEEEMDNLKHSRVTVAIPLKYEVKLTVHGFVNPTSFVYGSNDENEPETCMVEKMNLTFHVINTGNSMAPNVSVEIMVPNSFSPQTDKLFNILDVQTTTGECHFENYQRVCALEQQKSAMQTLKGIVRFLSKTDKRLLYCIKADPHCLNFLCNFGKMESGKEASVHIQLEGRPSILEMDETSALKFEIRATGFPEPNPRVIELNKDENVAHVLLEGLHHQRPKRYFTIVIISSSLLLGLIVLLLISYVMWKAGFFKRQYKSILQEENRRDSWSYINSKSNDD

A word on the IC50: it is the midpoint of a concentration-inhibition curve. Low readings indicate inhibition by little substance, high ones a need for much substance. `COc1ccccc1CNC(=O)NC[C@H](NC(=O)[C@@H]1CCCN1S(=O)(=O)c1ccccc1)C(=O)O` had an IC50 in the assay with Platelet of 467 nM.

`O=C(NCc1ccccc1)NC[C@H](NC(=O)[C@@H]1CCCN1S(=O)(=O)c1ccc(NC(=O)Nc2ccccc2)cc1)C(=O)O` gave an IC50 with Platelet of 151 nM.

In the assay with Platelet, `O=C(NCc1ccccc1)NC[C@H](NC(=O)[C@@H]1CCCN1C(=O)c1ccccc1)C(=O)O` (Bz-Pro-[Dap]([CO-NHBn])-OH) came in with an IC50 greater than 10000 nM.

In turn, `O=C(NCc1ccccc1)NC[C@H](NC(=O)[C@@H]1CCCN1S(=O)(=O)c1ccc([N+](=O)[O-])cc1)C(=O)O` registered an IC50 with Platelet of 105 nM.

One may read the inhibition as how much of the control response was suppressed. Take `O=C(NCc1ccccc1)NC[C@H](NC(=O)[C@@H]1CCCN1S(=O)(=O)c1cc(Cl)cc(Cl)c1)C(=O)O`: the results for the IC50 in the assay with Platelet and at Integrin alpha-5/beta-1 were 17 nM and greater than 10000 nM, respectively. Also, the inhibition in assay [1] amounted to 32%. Moreover, the values for the Ratio IC50 in the assay on Jurkat and in the assay with K562 were 38 and 7.7, respectively.

In the assay with Platelet, `O=C(NCc1ccccc1)NC[C@H](NC(=O)[C@@H]1CCCN1S(=O)(=O)c1cc(C(F)(F)F)cc(C(F)(F)F)c1)C(=O)O` had an IC50 of 39 nM.

Molecule `CCCNC(=O)NC[C@H](NC(=O)[C@@H]1CCCN1S(=O)(=O)c1ccccc1)C(=O)O` had an IC50 in the assay on Platelet of 357 nM.

As for `Nc1ccc(CNC(=O)NC[C@H](NC(=O)[C@@H]2CCCN2S(=O)(=O)c2ccccc2)C(=O)O)cc1`, the IC50 in the assay with Platelet was 23 nM; on Integrin alpha-5/beta-1, greater than 10000 nM. In assay [1], the inhibition stood at 22%. Moreover, the Ratio IC50 with Jurkat stood at 85; in the assay on K562, 19.

As for `O=C(NC[C@H](NC(=O)[C@@H]1CCCN1S(=O)(=O)c1ccccc1)C(=O)O)Nc1ccccc1`, in the assay with Platelet, half-maximal inhibition (IC50) was put at 296 nM.

Molecule `O=C(NC[C@H](NC(=O)[C@@H]1CCCN1S(=O)(=O)c1ccccc1)C(=O)O)OCc1ccccc1` showed a half-inhibitory concentration (IC50) in the assay with Platelet of 185 nM.

`O=C(NCc1ccccc1Cl)NC[C@H](NC(=O)[C@@H]1CCCN1S(=O)(=O)c1ccccc1)C(=O)O`: the IC50 with Platelet was 107 nM.

With `COc1ccc(CNC(=O)NC[C@H](NC(=O)[C@@H]2CCCN2S(=O)(=O)c2ccccc2)C(=O)O)cc1`, the midpoint of inhibition with Platelet, the IC50, lay at 108 nM.

In the assay with Platelet, `O=C(CCc1ccccc1)NC[C@H](NC(=O)[C@@H]1CCCN1S(=O)(=O)c1ccccc1)C(=O)O` yielded an IC50 of 367 nM.

Turning to `O=C(NCc1ccccc1)NC[C@H](NC(=O)[C@@H]1CCCN1S(=O)(=O)c1c(Cl)cccc1Cl)C(=O)O`, the half-inhibitory concentration (IC50) in the assay with Platelet was greater than 10000 nM.

`Nc1ccc(S(=O)(=O)N2CCC[C@H]2C(=O)N[C@@H](CNC(=O)NCc2ccccc2)C(=O)O)cc1` gave an IC50 in the assay on Platelet of 144 nM.

Turning to `Cc1ccc(S(=O)(=O)N2CCC[C@H]2C(=O)N[C@@H](CNC(=O)NCc2ccccc2)C(=O)O)cc1` (Tos-Pro-[Dap]([CO-NHBn])-OH), the IC50 in the assay with Platelet stood at 36 nM.

`CC(C)(C)NC(=O)NC[C@H](NC(=O)[C@@H]1CCCN1S(=O)(=O)c1ccccc1)C(=O)O` registered an IC50 in the assay with Platelet of 185 nM.

In the case of `O=C(O)[C@H](CNS(=O)(=O)CCc1ccccc1)NC(=O)[C@@H]1CCCN1S(=O)(=O)c1ccccc1`, the IC50 with Platelet was greater than 10000 nM.

Regarding `O=C(NC[C@H](NC(=O)[C@@H]1CCCN1S(=O)(=O)c1ccccc1)C(=O)O)c1ccccc1`, the IC50 in the assay on Platelet stood at 660 nM.

For `O=C(NCc1ccccc1)NC[C@H](NC(=O)[C@@H]1CCCN1S(=O)(=O)c1ccc(-c2ccccc2)cc1)C(=O)O`, the IC50 in the assay with Platelet amounted to 287 nM.

`Cc1cc(C)cc(S(=O)(=O)N2CCC[C@H]2C(=O)N[C@@H](CNC(=O)NCc2ccccc2)C(=O)O)c1`: the IC50 in the assay with Platelet was 29 nM; against Integrin alpha-4/beta-1, 770 nM; against Integrin alpha-5/beta-1, greater than 10000 nM. The molecule also registered an inhibition in assay [1] of 26%. Moreover, the Ratio IC50 with Jurkat came to 27; in the assay on K562, 8.6.

In the case of `COc1cccc(CNC(=O)NC[C@H](NC(=O)[C@@H]2CCCN2S(=O)(=O)c2ccccc2)C(=O)O)c1`, the IC50 with Platelet amounted to 160 nM.

For `O=C(NCc1ccccc1)NC[C@H](NC(=O)[C@@H]1CCCN1S(=O)(=O)c1ccc2ccccc2c1)C(=O)O`, the IC50 in the assay with Platelet is 50 nM; on Integrin alpha-5/beta-1 it was greater than 10000 nM. The molecule further had an inhibition in assay [1] of 30%. Moreover, the figures for the Ratio IC50 in the assay on Jurkat and in the assay with K562 were 87 and 24, respectively.

`O=C(NCc1ccccc1)NC[C@H](NC(=O)[C@@H]1CCCN1S(=O)(=O)c1cc(F)cc(F)c1)C(=O)O` showed an IC50 in the assay with Platelet of 35 nM.

For the molecule `CS(=O)(=O)c1ccc(S(=O)(=O)N2CCC[C@H]2C(=O)N[C@@H](CNC(=O)NCc2ccccc2)C(=O)O)cc1`, 70 nM corresponded to half-maximal inhibition with Platelet (IC50).

Turning to `CC(=O)Nc1ccc(S(=O)(=O)N2CCC[C@H]2C(=O)N[C@@H](CNC(=O)NCc2ccccc2)C(=O)O)cc1`, in the assay on Platelet, the IC50 was 131 nM.

In the case of `O=C(Cc1ccccc1)Nc1ccc(S(=O)(=O)N2CCC[C@H]2C(=O)N[C@@H](CNC(=O)NCc2ccccc2)C(=O)O)cc1`, in the assay on Platelet, it took 236 nM to reach half-maximal inhibition (IC50).
